Among the data in patent US11744844B2, “Selective estrogen receptor degraders” (Eli Lilly and Company, priority 2021, dated 2023) are IC50 values, retold here.

Where a name gives a salt, the structure may show the parent alone.

What all share (type): cell-based
In assay [1] the test system is MCF7 ESR1 Y537N mutant cells. The assay is described as follows: Cell proliferation assay in MCF7-ESR1 Y537N-682. Particulars: Homo sapiens, 168 h; MCF7-ESR1 Y537N-682, seven days; read-out: Relative IC50 MCF7 ESR1 Y537N mutant cells, cell proliferation. The procedure:
(§1) The purpose of the following cell proliferation assays generally is to detect whether a test compound has effects on cell proliferation.
(§2) Seed MCF7 (purchased from ATCC HTB-22) cells at a density of 2,000 cells per well in DMEM phenol red free media 10% FBS (20 μL volume) (charcoal stripped) into a clear bottom 384-well cell culture plate. Plate MCF7-ESRY537N-682 (generated by CRISPR/Cas9 gene editing of ESr1 gene in MCF7 cells, clone #682) in DMEM media supplemented with 10% FBS, and 1% penicillin/streptomycin antibiotics at a density of 1000 cells per well. Incubate the plates at 37° C. and 5% CO2. The following day dose the cells with the test compound. Use an Echo 555 acoustic dispenser to prepare test compound serial dilutions (1:3) in a range from 60 μM to 0.003 μM. Dose the cells with the addition of 5 μL from the serial dilution plate to the cell plate, producing a final DMSO concentration of 0.2% with a final test compound concentration dose range between 20 and 0.001 μM. For the maximum point use media containing 0.2% of DMSO and for the minimum point use fulvestrant diluted at 2 μM final concentrations in the growth media containing 0.2% DMSO. After dosing with the test compound, incubate the cell plates at 37° C. and 5% CO2. […] Scan the plates with ACUMEN EXPLORER™ (Laser-scanning fluorescence microplate cytometer manufactured by TTP LABTECH LTD).

Assay [2] deals with T1, Y537N mutant ERα receptor (Homo sapiens, UniProt P03372, Y537N).
T1 construct: generated by CRISPR/Cas9 gene editing of ESR1 gene in MCF7 cells, clone #682; endogenous in cells; host or cells: MCF7-ESR1 Y537N-682 (CRISPR/Cas9-edited MCF7, clone #682)
T1 sequence (P03372 1-595 Y537N): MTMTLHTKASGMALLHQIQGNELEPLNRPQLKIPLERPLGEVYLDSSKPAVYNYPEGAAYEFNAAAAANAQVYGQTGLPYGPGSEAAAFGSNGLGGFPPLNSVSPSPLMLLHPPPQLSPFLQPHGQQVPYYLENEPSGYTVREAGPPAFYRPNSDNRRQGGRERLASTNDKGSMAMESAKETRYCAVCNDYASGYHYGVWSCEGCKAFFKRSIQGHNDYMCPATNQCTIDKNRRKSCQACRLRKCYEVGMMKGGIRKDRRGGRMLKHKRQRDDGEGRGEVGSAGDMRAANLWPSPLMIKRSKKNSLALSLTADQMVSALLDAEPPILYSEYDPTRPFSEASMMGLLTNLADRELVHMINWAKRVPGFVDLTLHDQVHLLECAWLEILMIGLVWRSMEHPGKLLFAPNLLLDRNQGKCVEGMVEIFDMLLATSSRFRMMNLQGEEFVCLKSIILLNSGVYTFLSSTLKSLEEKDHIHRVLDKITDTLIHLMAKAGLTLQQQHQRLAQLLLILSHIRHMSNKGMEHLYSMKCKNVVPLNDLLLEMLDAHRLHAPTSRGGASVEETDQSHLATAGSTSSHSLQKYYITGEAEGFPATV
The assay can be described thus: PRα inhibition (ERα functional antagonism) cell assay in MCF7-ESR1 Y537N 682 CRISPR cells. Particulars: MCF7 Y537N 682 CRISPR cells (heterozygous mutant), 72 hours; read-out: Relative IC50, PRα inhibition (ERα functional antagonism). An excerpt:
The purpose of the following PRα inhibition (ERα functional antagonism) cell assay is to determine the antagonistic activity of a test compound against the Y537N mutant ERα receptor. An antagonist in this assay is expected to block the function of the ERα receptor.
Culture MCF7-ESR1 Y537N-682 (generated by CRISPR/Cas9 gene editing of ESR1 gene in MCF7 cells, clone #682) in DMEM media supplemented with 10% FBS and 1% penicillin/streptomycin antibiotics and plate the cells (prior to becoming 70% confluent) in 384-well flat-bottom plates at a density of 4,000 cells per well in DMEM phenol red free media 10% FBS (20 μL volume) (charcoal stripped). Incubate the cells overnight in a cell culture incubator (5% CO2, 95% relative humidity and 37° C.) and allow the cells to attach to the plate. The following day dose the cells with the test compound. Use an Echo 555 acoustic dispenser to prepare compound serial dilutions (1:3) in a range from 6 μM to 0.0003 μM. […]
The following day wash the cells with PBS […] (2×20 μL) and incubate with secondary antibody (20 μL/well) (1:1000 dilution, Goat anti-rabbit IgM ALEXA FLUOR™ 488) in PBS 1% BSA for 105 minutes at room temperature. […] Scan the plates with ACUMEN EXPLORER™ [Laser-scanning fluorescence microplate cytometer manufactured by TTP LABTECH LTD] to measure PRα. […]

In assay [3] the test system is MCF7 ESR1 wild type cells. The assay can be described thus: Cell proliferation assay in MCF7. Particulars: Homo sapiens, 168 h, seven days, read-out: Relative IC50 MCF7 ESR1 wild type, cell proliferation. The method, then: as §1, §2

As for `O=S(=O)(O)Oc1ccc2c3c(cnc2c1)-c1ccc(C(F)(F)F)cc1O[C@@H]3c1ccc(OCCN2CC(CF)C2)cc1` [Example 1, [(5R)-5-[4-[2-[3-(Fluoromethyl)azetidin-1-yl]ethoxy]phenyl]-8-(trifluoromethyl)-5H-chromeno[4,3-c]quinolin-2-yl]hydrogen sulfate], the IC50 was 702 ± 389 nM in assay [1], 330 ± 116 nM in assay [2] and 518 ± 49.9 nM in assay [3].

As to `O=C(O)[C@H]1O[C@@H](Oc2ccc3c4c(cnc3c2)-c2ccc(C(F)(F)F)cc2O[C@@H]4c2ccc(OCCN3CC(CF)C3)cc2)[C@H](O)[C@@H](O)[C@@H]1O` [Example 2, (2S,3S,4S,5R,6S)-6-[[(5R)-5-[4-[2-[3-(Fluoromethyl)azetidin-1-yl]ethoxy]phenyl]-8-(trifluoromethyl)-5H-chromeno[4,3-c]quinolin-2-yl]oxy]-3,4,5-trihydroxy-tetrahydropyran-2-carboxylic acid], the IC50 in assay [1] stood at 1500 ± 966 nM; in assay [2] it was 470 ± 58 nM; in assay [3], 550 ± 238 nM.
